Results published in article PMC5025651, “Reprofiled anthelmintics abate hypervirulent stationary-phase Clostridium difficile” (Scientific Reports, 2016).
In brackets after ≈: the same amount, converted by molar mass. Like-named read-outs stand apart in the source and are kept apart here.

Columns and labels:
P. nigrescens ATCC 33563 = assay: MIC by broth microdilution; format: cell-based; settings: Prevotella nigrescens, ATCC33563
Hemolysis assay = format: cell-based; settings: sheep, pH 7.4
Protocol: Sheep red blood cells (Innovative Research, Novi, MI, USA) were washed three times with PBS pH 7.4. A 3% cell suspension in PBS (100 μL) was added to test compounds in PBS (100 μL, to a final concentration of 32 μg/mL), and then incubated at 37 °C for 1 h. The plate was centrifuged at 500 × g for 10 min, and supernatants (100 μL) were transferred to a clean 96-well plate. Hemolysis was determined by measuring absorbance at 540 nm, with 1% Triton X-100 as the positive control and 0.5% DMSO in PBS as the negative control. Hemolysis assays were performed in triplicate.

[1] = tested on: C. difficile isolate 20100422 (ribotype 054); assay: MIC by broth microdilution; format: cell-based, Clostridium difficile; settings: Clostridioides difficile
[2] = tested on: B. longum subsp. longum Strain 44B; assay: MIC by broth microdilution; format: cell-based; settings: Bifidobacterium longum
C. difficile strain 4118 [3] = assay: Time-kill kinetics against stationary-phase cultures; format: cell-based, Clostridium difficile; settings: stationary-phase CD4118; for log decrease in the number of CFUs: 4 × MIC, 24 h; for time to eradicate >99.9% of viable cells: 16× MIC (rafoxanide 2 μg/mL, closantel 4 μg/mL, compound 8 1 μg/mL)
Protocol: At t = 0, 3, 6 and 24 h, sample aliquots were withdrawn from the treated cultures and bacterial viability was scored by plating serial dilutions on BHIS agar plates. The agar plates were incubated in the anaerobic chamber for 20–24 h at 37 °C. Kinetic experiments were performed at least twice.

L. plantarum ATCC 8014 = assay: MIC by broth microdilution; format: cell-based; settings: Lactiplantibacillus plantarum
[4] = tested on: L. johnsonii Strain 135-1-CHN; assay: MIC by broth microdilution; format: cell-based; settings: Lactobacillus johnsonii, STRAIN1351CHN
[5] = tested on: C. difficile isolate 20110742 (ribotype 002); assay: MIC by broth microdilution; format: cell-based, Clostridium difficile; settings: Clostridioides difficile
S. epidermidis 1457 = assay: MIC by broth microdilution; format: cell-based; settings: Staphylococcus epidermidis
[6] = tested on: L. reuteri Strain CF48-3A; assay: MIC by broth microdilution; format: cell-based, Lactobacillus reuteri; settings: Limosilactobacillus reuteri
[7] = tested on: C. difficile isolate 20111163 (ribotype 024); assay: MIC by broth microdilution; format: cell-based, Clostridium difficile; settings: Clostridioides difficile
[8] = tested on: C. difficile isolate 20110566 (ribotype 020); assay: MIC by broth microdilution; format: cell-based, Clostridium difficile; settings: Clostridioides difficile
[9] = tested on: B. fragilis Strain CL05T00C42; assay: MIC by broth microdilution; format: cell-based; settings: Bacteroides fragilis
[10] = tested on: C. difficile isolate 20121412 (ribotype 047); assay: MIC by broth microdilution; format: cell-based, Clostridium difficile; settings: Clostridioides difficile
[11] = tested on: C. difficile isolate 20110961 (ribotype A12); assay: MIC by broth microdilution; format: cell-based, Clostridium difficile; settings: Clostridioides difficile
[12] = tested on: C. difficile isolate 20110869 (ribotype 001_072); assay: MIC by broth microdilution; format: cell-based, Clostridium difficile; settings: Clostridioides difficile
[13] = tested on: C. difficile isolate 20120016 (ribotype 019); assay: MIC by broth microdilution; format: cell-based, Clostridium difficile; settings: Clostridioides difficile
A. baumannii M2 = assay: MIC by broth microdilution; format: cell-based; settings: Acinetobacter baumannii
[14] = tested on: C. difficile isolate 20121190 (ribotype 126); assay: MIC by broth microdilution; format: cell-based, Clostridium difficile; settings: Clostridioides difficile
P. distasonis ATCC 8503 = assay: MIC by broth microdilution; format: cell-based; settings: Parabacteroides distasonis, ATCC8503
[15] = tested on: B. thetaiotaomicron ATCC 29148; assay: microbe, parasite or virus in culture; format: cell-based; settings: Bacteroides thetaiotaomicron, ATCC29148
[16] = tested on: C. difficile strain 4118 (CD4118, ATCC BAA-1870, ribotype 027); assay: MIC by broth microdilution; format: cell-based, Clostridium difficile; settings: for MIC: Clostridioides difficile
[17] = tested on: C. clostridioforme ATCC 25537; assay: MIC by broth microdilution; format: cell-based, Clostridium clostridioforme; settings: Clostridium, ATCC25537
C. sporogenes ATCC 15579 = assay: MIC by broth microdilution; format: cell-based; settings: Clostridium sporogenes, ATCC15579, BHIS, anaerobic, duplicate
[18] = tested on: C. difficile isolate 20110740 (ribotype 018); assay: MIC by broth microdilution; format: cell-based, Clostridium difficile; settings: Clostridioides difficile
B. subtilis ATCC 6051 = assay: MIC by broth microdilution; format: cell-based; settings: Bacillus subtilis, ATCC6051
[19] = tested on: C. difficile isolate 20110986 (ribotype 078); assay: MIC by broth microdilution; format: cell-based, Clostridium difficile; settings: Clostridioides difficile
[20] = tested on: C. difficile isolate 20110960 (ribotype 017); assay: MIC by broth microdilution; format: cell-based, Clostridium difficile; settings: Clostridioides difficile
[21] = tested on: B. breve Strain EX336960VC19; assay: MIC by broth microdilution; format: cell-based; settings: Bifidobacterium breve
C. difficile strain 4118 [22] = assay: Minimum bactericidal concentration (MBC), logarithmic- and stationary-phase cells; format: cell-based, Clostridium difficile
Protocol: The procedure for MBC determination was adapted from that of Alam et al.[44]. Briefly, a single overnight colony of C. difficile strain 4118 (streaked onto blood agar plate) was suspended in BHIS and grown to OD600 ~ 0.4–0.5 (logarithmic phase) or for 24 h (stationary phase). In 96-well microtiter plates, cultures were added to two-fold serial dilutions of test compounds in BHIS and incubated for 20–24 h at 37 °C in an anaerobic chamber. […] MBC measurements were performed in duplicate.

P. aeruginosa PAO1 = assay: MIC by broth microdilution; format: cell-based; settings: Pseudomonas aeruginosa
[23] = tested on: C. difficile isolate 20110973 (ribotype 106); assay: MIC by broth microdilution; format: cell-based, Clostridium difficile; settings: Clostridioides difficile

O=C(Nc1ccc(Oc2ccc(Cl)cc2)c(Cl)c1)c1cc(I)cc(I)c1O [Rafoxanide, rafoxanide]
MIC (P. nigrescens ATCC 33563): 8 µg/mL (≈ 12.8 µM) | hemolysis at 1 h, 32 µg/mL (Hemolysis assay; 32 µg/mL, 1 h, 37 °C, 1% Triton X-100 positive control, triplicate, read-out: Hemolysis (%)): < 1% | MIC [1]: 0.13 µg/mL (≈ 0.208 µM) | MIC [2]: 8 µg/mL (≈ 12.8 µM) | log decrease in the number of CFUs (C. difficile strain 4118 [3]): 2.7 log | time to eradicate >99.9% of viable cells (C. difficile strain 4118 [3]): 6 h | MIC (L. plantarum ATCC 8014; ATCC8014, 48 h): 32 µg/mL (≈ 51.1 µM) | MIC ([4]; 48 h): 32 µg/mL (≈ 51.1 µM) | MIC [5]: 0.06 µg/mL (≈ 0.0958 µM) | MIC (S. epidermidis 1457; 1457): ≤ 0.03 µg/mL | MIC ([6]; 48 h): 16 µg/mL (≈ 25.6 µM) | MIC [7]: 0.06 µg/mL (≈ 0.0958 µM) | MIC [8]: 0.06 µg/mL (≈ 0.0958 µM) | MIC [9]: 32 µg/mL (≈ 51.1 µM) | MIC [10]: 0.03 µg/mL (≈ 0.0479 µM) | MIC [11]: 0.06 µg/mL (≈ 0.0958 µM) | MIC [12]: 0.13 µg/mL (≈ 0.208 µM) | MIC [13]: 0.13 µg/mL (≈ 0.208 µM) | MIC (A. baumannii M2; M2): > 32 µg/mL | MIC [14]: 0.13 µg/mL (≈ 0.208 µM) | MIC (P. distasonis ATCC 8503): 8 µg/mL (≈ 12.8 µM) | MIC [15]: > 32 µg/mL | MIC C. difficile 4118 ([16]; BHIS broth, anaerobic, 20–24 h, n = 2): 0.13 µg/mL (≈ 0.208 µM) | MIC ([16]; ATCCBAA1870, read-out: MIC C. difficile 4118): 0.13 µg/mL (≈ 0.208 µM) | MIC [17]: 1 µg/mL (≈ 1.6 µM) | MIC (C. sporogenes ATCC 15579): 1 µg/mL (≈ 1.6 µM) | MIC [18]: 0.06 µg/mL (≈ 0.0958 µM) | MIC (B. subtilis ATCC 6051): ≤ 0.03 µg/mL | MIC [19]: 0.06 to 0.13 µg/mL (≈ 0.0958 to 0.208 µM) | MIC [20]: 0.06 µg/mL (≈ 0.0958 µM) | MIC [21]: 16 to 32 µg/mL (≈ 25.6 to 51.1 µM) | MBC (C. difficile strain 4118 [22]; Clostridioides difficile, 4118, read-out: MBClog): 0.5 µg/mL (≈ 0.799 µM) | MBC (C. difficile strain 4118 [22]; Clostridioides difficile, 4118, read-out: MBCstat): 1 µg/mL (≈ 1.6 µM) | MIC (P. aeruginosa PAO1; PAO1): > 32 µg/mL | MIC [23]: 0.06 µg/mL (≈ 0.0958 µM)

Cc1cc(C(C#N)c2ccc(Cl)cc2)c(Cl)cc1NC(=O)c1cc(I)cc(I)c1O (stereo not drawn) [Closantel]
MIC (P. nigrescens ATCC 33563; P. nigrescens ATCC 33563, supplemented Brucella broth, anaerobic, duplicate, read-out: MIC): 8 µg/mL (≈ 12.1 µM) | hemolysis at 1 h, 32 µg/mL (Hemolysis assay): < 1% | MIC ([1]; isolate 20100422, ribotype 054, duplicate, read-out: MIC): 0.25 µg/mL (≈ 0.377 µM) | MIC ([2]; B. longum subsp. longum 44B, LSM broth, anaerobic, duplicate, read-out: MIC): 16 µg/mL (≈ 24.1 µM) | log decrease in the number of CFUs (C. difficile strain 4118 [3]): 2.2 log | time to eradicate >99.9% of viable cells (C. difficile strain 4118 [3]): 24 h | MIC (L. plantarum ATCC 8014; ATCC8014, L. plantarum ATCC 8014, CAMHB with 5% laked horse blood, ~48 h, duplicate, read-out: MIC): > 32 µg/mL | MIC ([4]; L. johnsonii 135-1-CHN, CAMHB with 5% laked horse blood, ~48 h, duplicate, read-out: MIC): 32 µg/mL (≈ 48.3 µM) | MIC ([5]; isolate 20110742, ribotype 002, duplicate, read-out: MIC): 0.13 to 0.25 µg/mL (≈ 0.196 to 0.377 µM) | MIC (S. epidermidis 1457; S. epidermidis 1457, CAMHB, aerobic, duplicate, read-out: MIC): ≤ 0.03 µg/mL | MIC ([6]; L. reuteri CF48-3A, CAMHB with 5% laked horse blood, ~48 h, duplicate, read-out: MIC): 32 µg/mL (≈ 48.3 µM) | MIC ([7]; isolate 20111163, ribotype 024, duplicate, read-out: MIC): 0.13 to 0.25 µg/mL (≈ 0.196 to 0.377 µM) | MIC ([8]; isolate 20110566, ribotype 020, duplicate, read-out: MIC): 0.25 µg/mL (≈ 0.377 µM) | MIC ([9]; B. fragilis CL05T00C42, supplemented Brucella broth, anaerobic, duplicate, read-out: MIC): > 32 µg/mL | MIC ([10]; isolate 20121412, ribotype 047, duplicate, read-out: MIC): 0.125 µg/mL (≈ 0.189 µM) | MIC ([11]; isolate 20110961, ribotype A12, duplicate, read-out: MIC): 0.25 µg/mL (≈ 0.377 µM) | MIC ([12]; isolate 20110869, ribotype 001_072, duplicate, read-out: MIC): 1 µg/mL (≈ 1.51 µM) | MIC ([13]; isolate 20120016, ribotype 019, duplicate, read-out: MIC): 0.25 µg/mL (≈ 0.377 µM) | MIC (A. baumannii M2; A. baumannii M2, CAMHB, aerobic, duplicate, read-out: MIC): > 32 µg/mL | MIC ([14]; isolate 20121190, ribotype 126, duplicate, read-out: MIC): 0.25 µg/mL (≈ 0.377 µM) | MIC (P. distasonis ATCC 8503; P. distasonis ATCC 8503, supplemented Brucella broth, anaerobic, duplicate, read-out: MIC): 16 µg/mL (≈ 24.1 µM) | MIC [15]: > 32 µg/mL | MIC ([16]; ATCCBAA1870, BHIS broth, anaerobic, 20–24 h, n = 2, read-out: MIC C. difficile 4118): 0.25 µg/mL (≈ 0.377 µM) | MIC ([17]; C. clostridioforme ATCC 25537, BHIS, anaerobic, duplicate, read-out: MIC): 4 µg/mL (≈ 6.03 µM) | MIC (C. sporogenes ATCC 15579): 1 µg/mL (≈ 1.51 µM) | MIC ([18]; isolate 20110740, ribotype 018, duplicate, read-out: MIC): 0.25 µg/mL (≈ 0.377 µM) | MIC (B. subtilis ATCC 6051; B. subtilis ATCC 6051, CAMHB, aerobic, duplicate, read-out: MIC): ≤ 0.03 µg/mL | MIC ([19]; isolate 20110986, ribotype 078, duplicate, read-out: MIC): 0.25 µg/mL (≈ 0.377 µM) | MIC ([20]; isolate 20110960, ribotype 017, duplicate, read-out: MIC): 0.13 µg/mL (≈ 0.196 µM) | MIC ([21]; B. breve EX336960VC19, LSM broth, anaerobic, duplicate, read-out: MIC): > 32 µg/mL | MBC (C. difficile strain 4118 [22]; Clostridioides difficile, 4118, minimum bactericidal concentration (≥3-log reduction) for logarithmic-phase cells, 20–24 h, n = 2, read-out: MBClog): 2 µg/mL (≈ 3.02 µM) | MBC (C. difficile strain 4118 [22]; Clostridioides difficile, 4118, minimum bactericidal concentration (≥3-log reduction) for stationary-phase cells, 20–24 h, n = 2, read-out: MBCstat): 4 µg/mL (≈ 6.03 µM) | MIC (P. aeruginosa PAO1; P. aeruginosa PAO1, CAMHB, aerobic, duplicate, read-out: MIC): > 32 µg/mL | MIC ([23]; isolate 20110973, ribotype 106, duplicate, read-out: MIC): 0.25 µg/mL (≈ 0.377 µM)
